Key:
Experiment in all cases: relative viability (nuclei count vs DMSO), 5 days (fraction); higher = more cells survive
R406 + Alpelisib = compound: COc1cc(Nc2ncc(F)c(Nc3ccc4c(n3)NC(=O)C(C)(C)O4)n2)cc(OC)c1OC [R406] + Cc1nc(NC(=O)N2CCC[C@H]2C(N)=O)sc1-c1ccnc(C(C)(C)C(F)(F)F)c1 [Alpelisib] (partner 2 µM)
Procedure, shortened: (§1)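 One day after seeding in 1536-well plates, lung cancer cell lines were dosed by pin tool. Dosing was either single-drug or a fixed anchor-drug dose plus five library-drug doses (not always all listed) in √10 steps. After 5 days, nuclei were stained in one fix-and-stain step and counted on 4× images, and relative viability is the nuclei count of treated wells over that of vehicle wells, given as the median of duplicate plates.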

R406 + Pemetrexed = compound: COc1cc(Nc2ncc(F)c(Nc3ccc4c(n3)NC(=O)C(C)(C)O4)n2)cc(OC)c1OC [R406] + Nc1nc2[nH]cc(CCc3ccc(C(=O)N[C@@H](CCC(=O)O)C(=O)O)cc3)c2c(=O)[nH]1 [Pemetrexed] (partner 0.2 µM)
Procedure, shortened: as §1

R406 + Olaparib = compound: COc1cc(Nc2ncc(F)c(Nc3ccc4c(n3)NC(=O)C(C)(C)O4)n2)cc(OC)c1OC [R406] + O=C(c1cc(Cc2n[nH]c(=O)c3ccccc23)ccc1F)N1CCN(C(=O)C2CC2)CC1 [Olaparib] (partner 8 µM)
Procedure, shortened: as §1

Daporinad + Dasatinib = compound: O=C(/C=C/c1cccnc1)NCCCCC1CCN(C(=O)c2ccccc2)CC1 [Daporinad] + Cc1nc(Nc2ncc(C(=O)Nc3c(C)cccc3Cl)s2)cc(N2CCN(CCO)CC2)n1 [Dasatinib] (partner 0.075 µM)
Procedure, shortened: as §1

Cell Line: UMC-11
- relative viability (R406 + Alpelisib; first compound 0.08 µM): 0.969
- relative viability (R406 + Alpelisib; first compound 0.253 µM): 1.06
- relative viability (R406 + Alpelisib; first compound 0.8 µM): 1.15
- relative viability (R406 + Alpelisib; first compound 2.53 µM): 0.89
- relative viability (R406 + Alpelisib; first compound 8 µM): 0.386
- relative viability (R406 + Pemetrexed; first compound 0.08 µM): 0.764
- relative viability (R406 + Pemetrexed; first compound 0.253 µM): 0.808
- relative viability (R406 + Pemetrexed; first compound 0.8 µM): 0.889
- relative viability (R406 + Pemetrexed; first compound 2.53 µM): 0.609
- relative viability (R406 + Pemetrexed; first compound 8 µM): 0.304
- relative viability (R406 + Olaparib; first compound 0.08 µM): 0.392
- relative viability (R406 + Olaparib; first compound 0.253 µM): 0.348
- relative viability (R406 + Olaparib; first compound 0.8 µM): 0.342
- relative viability (R406 + Olaparib; first compound 2.53 µM): 0.363
- relative viability (R406 + Olaparib; first compound 8 µM): 0.199
- relative viability (Daporinad + Dasatinib; first compound 0.0005 µM): 0.486
- relative viability (Daporinad + Dasatinib; first compound 0.001581 µM): 0.507
- relative viability (Daporinad + Dasatinib; first compound 0.005 µM): 0.394
- relative viability (Daporinad + Dasatinib; first compound 0.01581 µM): 0.505

From the supplement of paper PMC10307832
